Test results: patent publication US20230053473A1, “ENHANCING EXPRESSION OF LINE-1 ENCODED ORF2P FOR CANCER THERAPEUTICS” (The Johns Hopkins University, priority 2019, published 2023)

Legend:
PKR = PKR (Homo sapiens, UniProt P19525); conditions: in vitro, cited from earlier work
RPA2 = experiment: Western blot of chromatin-bound RPA2; assay type: cell-based; conditions: RPE, chromatin-bound protein fractions; 1 μM
Experimental: FIGS. 6A-6G. LINE-1 activity induces replication stress. 6A) Median count of sgRNAs targeting replication stress signaling genes ATRIP and the 9-1-1 complex (HUS1 and RAD1) during the screen. Error bars indicate 95% confidence intervals. 6B) Clonogenic assay of LINE-1(+) RPE cells (induced with 1 μg/ml doxycycline) with CRISPR-knockout of ATRIP compared to non-targeting-control (NTC). Error bars indicate SEM, n=3 independent experiments. P value is calculated with an unpaired two-sided T test. 6C) Clonogenic assay of LINE-1(+) RPE cells (induced with 1 μg/ml doxycycline) with drug inhibition of ATR kinase by 1 μM VE-821 compared to vehicle (DMSO). Error bars indicate SEM, n=3 independent experiments. P value is calculated with an unpaired two-sided T test. 6D) Western blot of RPA2 occupancy on chromatin induced by LINE-1 compared to luciferase control after 72 hours of expression in RPE. Chromatin-bound protein lysates were used. […] Relative signal intensity for n=2 independent experiments ±SEM is quantified. […] Statistical significance is assessed by ANOVA (p=0.0007). […]
Cells were lysed in RIPA buffer with protease/phosphatase inhibitor (cat#5872, Cell Signaling Technology, Danvers, Mass.) or Laemmli Sample Buffer (cat#1610747, Biorad, Hercules, Calif.) by sonication. […] Quantifications were carried out using Image Studio v4.0. […]

FANCD2 = experiment: Western blot of FANCD2 monoubiquitination; assay type: cell-based; conditions: NTC-treated cells; 24-hour treatment with 1 μg/ml
Source text: FIGS. 5A-5H. The Fanconi Anemia (FA) pathway is essential in p53-deficient cells. 5A) Network plot of 75 DNA repair genes identified in the screen. Edges indicate known physical interactions. This network is enriched for Fanconi anemia genes (blue nodes). 5B) Model of FA complexes responding to a DNA lesion (vertical line) encountered by a replication fork (blue line=genomic DNA; green line=nascent DNA). Genes are color coded based on the performance of their knockouts in the screen. 5C) Western blot of FANCD2 response to 24-hour treatment with 1 μg/ml mitomycin C (MMC). Cells are treated with FA member sgRNAs or non-targeting-control (NTC). FANCD2 monoubiquitination is assessed as the ratio of FANCD2-L (long) to FANCD2-S (short) band intensities (relative L:S ratio). The ratio is graphed relative to NTC, MMC-treated cells. nd=not determined. Uncropped blot is shown in the Source Data. 5D) Clonogenic growth assay of LINE-1(+) RPE cells with sgRNAs targeting the same genes as in (C). n=3 independent experiments. P value calculated with a one-sided T test. […] Quantification to the right of n=2 independent experiments ±SEM. […] Quantification below of n=2 independent experiments ±SEM. Effect of wildtype LINE-1 is statistically significant as assessed by ANOVA (p=0.0143). […] Right, quantification of FANCD2 foci in EdU+HeLa cells. […] 5H) Left, γH2A.X and 53BP1 focus quantification in EdU+TP53^KD cells. […]

LINE-1(+) RPE cells = experiment: Clonogenic growth assay, LINE-1(+) cells; assay type: cell-based
Experimental: (§1) Viability was determined by clonogenic growth or CellTiter-Glo assay (Promega, Madison, Wis.). WT RPE were assessed by clonogenic growth by transfecting 1e5 cells with 2 μg eGFP (pDA083) or 3 μg LINE-1 (pDA077) plasmid to achieve equimolar ratios. Cells were split to 10 cm growth dishes and selected with G418 24 hours later. In Tet-On assays, 500 cells were plated and doxycycline was added to activate transgene expression. For MMC sensitivity experiments, cells were treated with 100 pM, 1 nM, 10 nM, and 100 nM for 24 hours on day 2 after plating. In VE-821 sensitivity, cells were treated with 1 μM drug or DMSO vehicle throughout the duration of the experiment. For assays in CRISPR knockout cells, knockout cell pools were generated by infecting TP53^KD Tet-On RPE cells with lentivirus encoding either non-targeting control or a gene targeting guide and selecting with puromycin for 1 week. For all assays, after 10-14 days of L1 or control expression, colonies were washed with PBS and fixed (6% gluteraldehyde, 0.5% crystal violet) for 10 minutes. Plates were rinsed in water and air dried, then imaged on a flatbed scanner. Colonies with >50 cells were counted.

RPE cells = assay type: cell-based
Source text: (§2) FIGS. 13A and 13B. […] (Day 1 and 3 show little effect. The effect is sustained at day 10. Higher doses of the drug are toxic). The cells used are RPE cells that have a doxycycline (Dox) controlled LINE-1 expression construct. (13A.) Western blot showing ORF2p, ORF1p, and tubulin levels on day 5. Addition of Dox induces LINE-1 expression. Addition of PKRi enhances relative ORF2p expression levels. (13B.) Quantification of ORF2p expression (relative to tubulin) by Western blot as a function PKRi inhibitor dose on different days of the experiment.
(§3) (Day 1 and 3 show little effect. The effect is sustained at day 10. Higher doses of the drug are toxic.) The finding is significant as proof-of-principle that specific cellular pathways are involved in uncoupling the expression of LINE-1 encoded proteins. As such increasing ORF2p intracellularly in tumors can cause tumor cell death.

ORF2p = experiment: Western blot of ORF2p accumulation in RPE cells with doxycycline-controlled LINE-1 expression construct; assay type: cell-based, human
Source text: as §2
Cells were lysed in RIPA buffer with protease/phosphatase inhibitor (cat#5872, Cell Signaling Technology, Danvers, Mass.) or Laemmli Sample Buffer (cat#1610747, Biorad, Hercules, Calif.) by sonication. PAGE was carried out with manufacturer-recommended buffers on 4-20% or 7.5% Mini TGX Gels (Biorad), NuPAGE 4-12% BisTris gels, or NuPAGE 3-8% Tris-Acetate gels (Thermo). Semi-dry transfers were carried out for Biorad gels or NuPAGE BisTris gels at 2.5 A for 5-15 minutes using the Trans-Blot-Turbo (Biorad). Wet transfers were carried out for Tris-Acetate gels at 30V overnight. All blocking was performed with Odyssey Blocking Buffer (Licor). Primary antibodies were incubated with membranes overnight at 4C, then infrared-conjugated secondaries (Licor) were added 1:10,000 and imaged on a Licor Odyssey Scanner. Quantifications were carried out using Image Studio v4.0. Blots were stripped with Reblot Plus Strong Solution (Millipore Sigma).
as §3

luciferase(+) cells = experiment: Clonogenic growth assay, luciferase(+) control cells; assay type: cell-based
Experimental: as §1

[1] = tested on: Tet-On TP53KD cells expressing LINE-1; experiment: qRT-PCR of LINE-1-induced IFN response with nucleoside reverse transcriptase inhibitors; assay type: cell-based; conditions: 5 μM for 72 hours
Experimental: 250,000 Tet-On TP53^KD cells expressing Luciferase or LINE-1 were plated in T25 flasks with 1 ng/mL doxycycline added and treated with 5 μM zalcitabine (ddC) or 5 μM didanosine (ddI) for 72 hours. Cells were lysed and RNA were extracted using Quick-RNA MicroPrep kit (Zymo Research).
cDNA was generated using the iScript kit (Biorad, Hercules, Calif.) following RNA extraction using the Quick-RNA Microprep kit (Zymo). Primers were designed using Primer3 and tested against cDNA to ensure single bands were generated in the PCR. Real-time PCR was performed for 40 cycles (98C×15 seconds, 60C×30 seconds) using SSOAdvanced 2X Master mix (Biorad) on the MyIQ cycler (Biorad). Fold-change expression was determined by the 2^−ΔΔCt method.

TP53KD cells = experiment: γH2A.X and 53BP1 nuclear foci quantification in TP53KD cells; assay type: cell-based; conditions: data not shown
Experimental: (§4) We used either Tet-On TP53^KD cells expressing Luciferase or LINE-1 or HeLa cells transfected with doxycycline-inducible LINE-1 plasmids (pDA007, pDA025, pDA027, pDA033, pDA019) and stably-selected with puromycin for 1-2 weeks. Positive controls were treated with either 6 mM hydroxyurea for 4 hours or 200 ng/mL doxorubicin for 2 hours. 100,000 cells were plated on cover slips and treated with 1000 ng/ml doxycycline for 72 hours. EdU was added for 2 hours and cells were pre-treated with 0.5% Triton X-100 for 5 min, fixed with 3.7% paraformaldehyde for 10 minutes, then permeabilized with 0.5% NP-40 for 10 minutes. EdU Click-iT reaction (ThermoFisher) was performed following manufacturer's instructions. Slides were blocked (1% BSA/PBS-Glycine, 30 minutes) and incubated with polyclonal rabbit FANCD2 (1:1000, Novus Biologicals), rabbit 53BP1 (1:500, Novus Biologicals), or mouse γH2A.X (1:1000, Millipore) for 1 hour at room temperature and then anti-rabbit Alexa Fluor 488 for FANCD2 (1:200, ThermoFisher) and anti-rabbit Alexa Fluor 488 (1:2000, ThermoFisher) and anti-mouse Alexa Fluor 555 (1:2000, ThermoFisher) for 53BP1 and γH2A.X, respectively. Slides were imaged at low magnification with the same equipment as described above with key methodological differences. […] Foci were quantified using a previously published method in MATLAB. […]

HeLa cells = experiment: FANCD2 nuclear foci quantification in EdU-labeled HeLa cells; assay type: cell-based; conditions: S phase (EdU+) cells; p=1.7×10^−8
Experimental: as §4

Chain of PKR (P19525 whole entry): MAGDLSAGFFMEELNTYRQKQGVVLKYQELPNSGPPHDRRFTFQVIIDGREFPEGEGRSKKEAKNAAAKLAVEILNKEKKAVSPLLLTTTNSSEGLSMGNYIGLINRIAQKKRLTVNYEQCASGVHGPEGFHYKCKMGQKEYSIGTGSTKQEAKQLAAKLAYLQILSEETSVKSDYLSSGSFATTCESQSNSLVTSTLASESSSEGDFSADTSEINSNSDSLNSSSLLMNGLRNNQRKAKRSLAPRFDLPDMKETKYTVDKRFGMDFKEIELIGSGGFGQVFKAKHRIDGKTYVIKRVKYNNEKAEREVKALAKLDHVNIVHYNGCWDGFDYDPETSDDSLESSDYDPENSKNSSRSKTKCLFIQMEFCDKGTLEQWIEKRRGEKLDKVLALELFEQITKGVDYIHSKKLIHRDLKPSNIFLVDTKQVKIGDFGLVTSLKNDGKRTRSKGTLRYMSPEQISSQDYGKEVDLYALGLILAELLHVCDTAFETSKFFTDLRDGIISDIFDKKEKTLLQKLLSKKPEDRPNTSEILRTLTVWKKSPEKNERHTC

## Nc1ncc2[nH]cnc2n1 [2-AP, 2-aminopurine]
PKR; competes for ATP at the ATP binding site of PKR
  potency relative to C16: less potent than C16

## CO[C@@]12[C@H](COC(N)=O)C3=C(C(=O)C(C)=C(N)C3=O)N1C[C@@H]1N[C@@H]12 [MMC, mitomycin C]
RPA2
  chromatin-bound RPA2: induced chromatin-bound RPA2
FANCD2
  FANCD2 monoubiquitination (FANCD2-Ub): induced FANCD2-Ub
LINE-1(+) RPE cells; dose-response clonogenic assay, 24 hours treatment
  sensitivity of LINE-1(+) cells compared to luciferase-expressing controls: 1.9 fold

## O=C1Nc2ccc3ncsc3c2C1=Cc1cnc[nH]1 [PKRi, 6,8-dihydro-8-(1H-imidazol-5-ylmethylene)-7H-pyrrolo[2,3-g]benzothiazol-7-one]
PKR
  IC50: ~200 nM
RPE cells
  toxicity: toxic
ORF2p; 0.1 uM, by day 6 of treatment
  accumulation of ORF2p (relative to ORF1p and tubulin): increases the accumulation of ORF2p
ORF2p; Day 1 and 3
  effect on ORF2p accumulation: little effect
ORF2p; by day 5 of treatment, Dox-induced RPE cells
  accumulation of ORF2p (relative to ORF1p and tubulin): dose-dependent increases the accumulation of ORF2p
ORF2p; day 10
  effect on ORF2p accumulation: sustained

## CS(=O)(=O)c1ccc(-c2cnc(N)c(C(=O)Nc3ccccc3)n2)cc1 [VE-821]
luciferase(+) cells; same dose as in LINE-1(+) cells, data not shown
  effect on viability in luciferase(+) cells: no effect on viability
LINE-1(+) RPE cells; 1 μM vs DMSO vehicle
  sensitization of cells to LINE-1 (ATR inhibition): sensitized cells to LINE-1

## O=c1[nH]cnc2c1ncn2[C@H]1CC[C@@H](CO)O1 [didanosine]
[1]
  effect on LINE-1-induced IFN response: attenuated the IFN response

## COc1cccc2c1C(=O)c1c(O)c3c(c(O)c1C2=O)C[C@@](O)(C(=O)CO)C[C@@H]3O[C@H]1C[C@H](N)[C@H](O)[C@H](C)O1 [doxorubicin]
TP53KD cells
  DNA damage foci (γH2A.X and 53BP1) over the cell cycle: continue to accumulate

## NC(=O)NO [hydroxyurea]
HeLa cells
  number of FANCD2 foci: increased the number of FANCD2 foci

## Nc1ccn([C@H]2CC[C@@H](CO)O2)c(=O)n1 [zalcitabine]
[1]
  effect on LINE-1-induced IFN response: attenuated the IFN response

## pladienolide B [PLA-B]
luciferase(+) cells; same PLA-B dose as for LINE-1(+) cells
  reduction of luciferase(+) clonogenic growth: 6.8%
LINE-1(+) RPE cells; P=0.044
  increased sensitivity of LINE-1(+) vs luciferase(+) cells: 4.1 fold
LINE-1(+) RPE cells; same PLA-B dose as for luciferase(+) cells
  fewer colonies of LINE-1(+) cells: 27.8%
